From ChEMBL document CHEMBL1697723, “A predictive ligand-based Bayesian model for human drug-induced liver injury” (Drug Metab Dispos, 2010)

Tested on: Hepatotoxicity
Experiment: Human drug-induced liver injury (DILI) modelling dataset from Ekins et al
Conditions: not given

Q: For `CN1C(C(=O)Nc2ccccn2)=C(O)c2ccccc2S1(=O)=O` [PIROXICAM], which Hepatotoxicity is on record?
A: DILI positive (training set)

Q: Which Hepatotoxicity does the source give for `CC(C(=O)O)c1ccc(N2CC=CC2)c(Cl)c1` (stereo not drawn) [PIRPROFEN] here?
A: DILI positive (test set)

Q: Which Hepatotoxicity does the source give for `C[C@]12C=CC(=O)C=C1CC[C@@H]1[C@@H]2C(=O)C[C@@]2(C)[C@H]1CC[C@]2(O)C(=O)CO` [PREDNISONE] here?
A: DILI negative (training set)

Q: For `COc1cc(NC(C)CCCN)c2ncccc2c1.O=P(O)(O)O.O=P(O)(O)O` (stereo not drawn) [PRIMAQUINE PHOSPHATE], which Hepatotoxicity is on record?
A: DILI negative (training set)

Q: For `CCC1(c2ccccc2)C(=O)NCNC1=O` [PRIMIDONE], which Hepatotoxicity is on record?
A: DILI negative (training set)

Q: Which Hepatotoxicity does the source give for `CCCN(CCC)S(=O)(=O)c1ccc(C(=O)O)cc1` [PROBENECID] here?
A: DILI negative (test set)

Q: For `CC(C)(Sc1cc(C(C)(C)C)c(O)c(C(C)(C)C)c1)Sc1cc(C(C)(C)C)c(O)c(C(C)(C)C)c1` [PROBUCOL], which Hepatotoxicity is on record?
A: DILI negative (test set)

Q: For `CNNCc1ccc(C(=O)NC(C)C)cc1.Cl` [PROCARBAZINE HYDROCHLORIDE], which Hepatotoxicity is on record?
A: DILI positive (training set)

Q: With `CN1CCN(CCCN2c3ccccc3Sc3ccc(Cl)cc32)CC1.O=C(O)/C=C\C(=O)O.O=C(O)/C=C\C(=O)O` [PROCHLORPERAZINE MALEATE] as the compound, how does the Hepatotoxicity read?
A: DILI positive (test set)

Q: With `CC(=O)[C@H]1CC[C@H]2[C@@H]3CCC4=CC(=O)CC[C@]4(C)[C@H]3CC[C@]12C` [PROGESTERONE] as the compound, how does the Hepatotoxicity read?
A: DILI positive (training set)

Q: With `CN(C)CCCN1c2ccccc2Sc2ccccc21.Cl` [PROMAZINE HYDROCHLORIDE] as the compound, how does the Hepatotoxicity read?
A: DILI negative (training set)

Q: Which Hepatotoxicity does the source give for `CC(CN1c2ccccc2Sc2ccccc21)N(C)C.Cl` (stereo not drawn) [PROMETHAZINE HYDROCHLORIDE] here?
A: DILI negative (training set)

Q: `CC(C)NCC(O)COc1cccc2ccccc12` (stereo not drawn) [PROPRANOLOL] was tested. Which Hepatotoxicity did it give?
A: DILI negative (test set)

Q: `CN[C@@H](C)[C@@H](O)c1ccccc1.Cl` [PSEUDOEPHEDRINE HYDROCHLORIDE] was tested. Which Hepatotoxicity did it give?
A: DILI negative (training set)

Q: `COc1ccc(C[C@H](N)C(=O)N[C@H]2[C@@H](O)[C@H](n3cnc4c(N(C)C)ncnc43)O[C@@H]2CO)cc1` [PUROMYCIN] was tested. Which Hepatotoxicity did it give?
A: DILI positive (training set)

Q: Which Hepatotoxicity does the source give for `NC(=O)c1cnccn1` [PYRAZINAMIDE] here?
A: DILI positive (training set)

Q: `CN(C)C(=O)Oc1ccc[n+](C)c1.[Br-]` [PYRIDOSTIGMINE BROMIDE] was tested. Which Hepatotoxicity did it give?
A: DILI negative (training set)

Q: `CCc1nc(N)nc(N)c1-c1ccc(Cl)cc1` [PYRIMETHAMINE] was tested. Which Hepatotoxicity did it give?
A: DILI positive (training set)

Q: For `C=C[C@H]1C[N@@]2CC[C@H]1C[C@@H]2[C@@H](O)c1ccnc2ccc(OC)cc12` [QUINIDINE], which Hepatotoxicity is on record?
A: DILI positive (training set)

Q: How did the Hepatotoxicity turn out when `C=C[C@H]1CN2CC[C@H]1C[C@H]2[C@H](O)c1ccnc2ccc(OC)cc12.C=C[C@H]1CN2CC[C@H]1C[C@H]2[C@H](O)c1ccnc2ccc(OC)cc12.O.O.O=S(=O)(O)O` [QUININE SULFATE] was run?
A: DILI positive (test set)

Q: With `C=C[C@H]1C[N@@]2CC[C@H]1C[C@H]2[C@H](O)c1ccnc2ccc(OC)cc12` [QUININE] as the compound, how does the Hepatotoxicity read?
A: DILI positive (training set)

Q: With `CCO[C@@H](Cc1ccc(OCCN2c3ccccc3Oc3ccccc32)cc1)C(=O)O` [RAGAGLITAZAR] as the compound, how does the Hepatotoxicity read?
A: DILI negative (test set)

Q: How did the Hepatotoxicity turn out when `O=C(c1ccc(OCCN2CCCCC2)cc1)c1c(-c2ccc(O)cc2)sc2cc(O)ccc12` [RALOXIFENE] was run?
A: DILI negative (training set)

Q: `CNC(=C[N+](=O)[O-])NCCSCc1ccc(CN(C)C)o1` [RANITIDINE] was tested. Which Hepatotoxicity did it give?
A: DILI negative (training set)

Q: For `NC(=O)c1ncn([C@@H]2O[C@H](CO)[C@@H](O)[C@H]2O)n1` [RIBAVIRIN], which Hepatotoxicity is on record?
A: DILI negative (training set)

Q: How did the Hepatotoxicity turn out when `CO[C@H]1/C=C/O[C@@]2(C)Oc3c(C)c(O)c4c(O)c(c(/C=N/N5CCN(C)CC5)c(O)c4c3C2=O)NC(=O)/C(C)=C\C=C\[C@H](C)[C@H](O)[C@@H](C)[C@@H](O)[C@@H](C)[C@H](OC(C)=O)[C@@H]1C` [RIFAMPIN] was run?
A: DILI negative (test set)

Q: Which Hepatotoxicity does the source give for `Nc1nc2ccc(OC(F)(F)F)cc2s1` [RILUZOLE] here?
A: DILI positive (training set)

Q: For `Cc1nc2n(c(=O)c1CCN1CCC(c3noc4cc(F)ccc34)CC1)CCCC2` [RISPERIDONE], which Hepatotoxicity is on record?
A: DILI positive (training set)

Q: With `CC(C)c1nc(CN(C)C(=O)N[C@H](C(=O)N[C@@H](Cc2ccccc2)C[C@H](O)[C@H](Cc2ccccc2)NC(=O)OCc2cncs2)C(C)C)cs1` [RITONAVIR] as the compound, how does the Hepatotoxicity read?
A: DILI positive (test set)

Q: Which Hepatotoxicity does the source give for `CN(CCOc1ccc(CC2SC(=O)NC2=O)cc1)c1ccccn1` (stereo not drawn) [ROSIGLITAZONE] here?
A: DILI negative (test set)

Q: `C=C(C)[C@H]1Cc2c(ccc3c2O[C@@H]2COc4cc(OC)c(OC)cc4[C@@H]2C3=O)O1` [ROTENONE] was tested. Which Hepatotoxicity did it give?
A: DILI positive (test set)

Q: With `OC[C@@H](O)[C@@H](O)[C@H](O)[C@@H](O)CO` [SORBITOL] as the compound, how does the Hepatotoxicity read?
A: DILI negative (training set)

Q: With `CC(=O)S[C@@H]1CC2=CC(=O)CC[C@]2(C)[C@H]2CC[C@@]3(C)[C@@H](CC[C@@]34CCC(=O)O4)[C@H]12` [SPIRONOLACTONE] as the compound, how does the Hepatotoxicity read?
A: DILI positive (training set)

Q: With `Cc1cn([C@H]2C=C[C@@H](CO)O2)c(=O)[nH]c1=O` [STAVUDINE] as the compound, how does the Hepatotoxicity read?
A: DILI positive (training set)

Q: For `CN(N=O)C(=O)N[C@@H](C=O)[C@@H](O)[C@H](O)[C@H](O)CO` [STREPTOZOCIN], which Hepatotoxicity is on record?
A: DILI negative (test set)

Q: `CN1C(C(=O)Nc2nccs2)=C(O)c2ccccc2S1(=O)=O` [SUDOXICAM] was tested. Which Hepatotoxicity did it give?
A: DILI positive (test set)

Q: How did the Hepatotoxicity turn out when `Clc1ccc(CSC(Cn2ccnc2)c2ccc(Cl)cc2Cl)cc1.O=[N+]([O-])O` (stereo not drawn) [SULCONAZOLE NITRATE] was run?
A: DILI negative (test set)

Q: `Nc1ccc(S(=O)(=O)NC(=O)c2ccccc2)cc1` [SULFABENZAMIDE] was tested. Which Hepatotoxicity did it give?
A: DILI negative (test set)

Q: For `Cc1nnc(NS(=O)(=O)c2ccc(N)cc2)s1` [SULFAMETHIZOLE], which Hepatotoxicity is on record?
A: DILI positive (test set)

Q: With `O=C(O)c1cc(/N=N/c2ccc(S(=O)(=O)Nc3ccccn3)cc2)ccc1O` [SULFASALAZINE] as the compound, how does the Hepatotoxicity read?
A: DILI positive (training set)

Q: With `O=C1C(CC[S+]([O-])c2ccccc2)C(=O)N(c2ccccc2)N1c1ccccc1` (stereo not drawn) [SULFINPYRAZONE] as the compound, how does the Hepatotoxicity read?
A: DILI positive (test set)

Q: Which Hepatotoxicity does the source give for `O=C1OC(c2ccc(O)c(S(=O)(=O)O)c2)(c2ccc(O)c(S(=O)(=O)O)c2)c2c(Br)c(Br)c(Br)c(Br)c21` [SULFOBROMOPHTHALEIN] here?
A: DILI positive (test set)

Q: `Cc1nc(C)c2c(n1)N(Cc1ccc(-c3ccccc3-c3nnn[nH]3)cc1)C(=O)CC2` [TASOSARTAN] was tested. Which Hepatotoxicity did it give?
A: DILI positive (test set)

Q: How did the Hepatotoxicity turn out when `Cc1scc2c1N(C(=O)CN1CCN(C)CC1)c1ccccc1NC2=O` [TELENZEPINE] was run?
A: DILI negative (test set)

Q: `CC1CN(c2cc3c(cc2F)c(=O)c(C(=O)O)cn3-c2ccc(F)cc2F)CCN1` (stereo not drawn) [TEMAFLOXACIN] was tested. Which Hepatotoxicity did it give?
A: DILI positive (test set)

Q: How did the Hepatotoxicity turn out when `Cn1nnc2c(C(N)=O)ncn2c1=O` [TEMOZOLOMIDE] was run?
A: DILI negative (training set)

Q: `CC(C)(C)c1ccc(C(O)CCCN2CCC(C(O)(c3ccccc3)c3ccccc3)CC2)cc1` (stereo not drawn) [TERFENADINE] was tested. Which Hepatotoxicity did it give?
A: DILI negative (training set)

Q: How did the Hepatotoxicity turn out when `CCCCNc1ccc(C(=O)OCCN(C)C)cc1.Cl` [TETRACAINE HYDROCHLORIDE] was run?
A: DILI negative (training set)

Q: How did the Hepatotoxicity turn out when `CN(C)[C@@H]1C(O)=C(C(N)=O)C(=O)[C@@]2(O)C(O)=C3C(=O)c4c(O)cccc4[C@@](C)(O)[C@H]3C[C@@H]12` [TETRACYCLINE] was run?
A: DILI positive (training set)

Q: For `Cn1c(=O)c2[nH]cnc2n(C)c1=O.O` [THEOPHYLLINE], which Hepatotoxicity is on record?
A: DILI negative (test set)

Q: With `CC(=N)S` [THIOACETAMIDE] as the compound, how does the Hepatotoxicity read?
A: DILI positive (training set)

Q: How did the Hepatotoxicity turn out when `CN1c2ccccc2C(NCCCCCCC(=O)O)c2ccc(Cl)cc2S1(=O)=O` (stereo not drawn) [TIANEPTINE] was run?
A: DILI positive (training set)

Same assay, conditions: Liver

Q: Which Hepatotoxicity does the source give for `CC(C)c1cccc(C(C)C)c1O` [PROPOFOL] here?
A: DILI negative (test set)

Q: For `Cc1ncc(CO)c(CO)c1O` [PYRIDOXINE], which Hepatotoxicity is on record?
A: DILI negative (training set)

Q: With `CO[C@H]1/C=C/O[C@@]2(C)Oc3c(C)c(O)c4c(c3C2=O)C2=NC3(CCN(CC(C)C)CC3)NC2=C(NC(=O)/C(C)=C\C=C\[C@H](C)[C@H](O)[C@@H](C)[C@@H](O)[C@@H](C)[C@H](OC(C)=O)[C@@H]1C)C4=O` [RIFABUTIN] as the compound, how does the Hepatotoxicity read?
A: DILI positive (test set)

Q: How did the Hepatotoxicity turn out when `CC(C)(C)NC(=O)[C@@H]1C[C@@H]2CCCC[C@@H]2CN1C[C@@H](O)[C@H](Cc1ccccc1)NC(=O)[C@H](CC(N)=O)NC(=O)c1ccc2ccccc2n1.CS(=O)(=O)O` [SAQUINAVIR MESYLATE] was run?
A: DILI positive (test set)

Q: For `CN[C@H]1CC[C@@H](c2ccc(Cl)c(Cl)c2)c2ccccc21` [SERTRALINE], which Hepatotoxicity is on record?
A: DILI negative (training set)

Q: How did the Hepatotoxicity turn out when `CN[C@@H]1[C@H](O[C@H]2[C@H](O[C@H]3[C@H](O)[C@@H](O)[C@H](N=C(N)N)[C@@H](O)[C@@H]3N=C(N)N)O[C@@H](C)[C@]2(O)C=O)O[C@@H](CO)[C@H](O)[C@H]1O.CN[C@@H]1[C@H](O[C@H]2[C@H](O[C@H]3[C@H](O)[C@@H](O)[C@H](N=C(N)N)[C@@H](O)[C@@H]3N=C(N)N)O[C@@H](C)[C@]2(O)C=O)O[C@@H](CO)[C@H](O)[C@H]1O.O=S(=O)(O)O.O=S(=O)(O)O.O=S(=O)(O)O` [STREPTOMYCIN SULFATE] was run?
A: DILI negative (training set)

Q: For `[H]/N=C(/N)N[C@H]1[C@H](O)[C@@H](O)[C@H](O[C@@H]2O[C@@H](C)[C@](O)(C=O)[C@H]2O[C@@H]2O[C@@H](CO)[C@H](O)[C@@H](O)[C@@H]2NC)[C@@H](N/C(N)=N\[H])[C@@H]1O` [STREPTOMYCIN], which Hepatotoxicity is on record?
A: DILI negative (test set)

Q: How did the Hepatotoxicity turn out when `Nc1ccc(S(N)(=O)=O)cc1` [SULFANILAMIDE] was run?
A: DILI positive (test set)

Q: Which Hepatotoxicity does the source give for `Nc1c2c(nc3ccccc13)CCCC2` [TACRINE] here?
A: DILI negative (training set)

Q: `CC[C@H]1OC(=O)[C@H](C)C(=O)[C@H](C)[C@@H](O[C@@H]2O[C@H](C)C[C@H](N(C)C)[C@H]2O)[C@](C)(OC)C[C@@H](C)C(=O)[C@H](C)[C@H]2N(CCCCn3cnc(-c4cccnc4)c3)C(=O)O[C@]12C` [TELITHROMYCIN] was tested. Which Hepatotoxicity did it give?
A: DILI positive (test set)

Q: Which Hepatotoxicity does the source give for `Cc1ncc(C[n+]2csc(CCO)c2C)c(N)n1` [THIAMINE ION] here?
A: DILI negative (test set)
